Laboratory results reported in article PMC6220303 (EMBO Molecular Medicine, 2018).

Tests used:
[1] = tested on: rats; test: Long-term toxicology studies in rats; format: in vivo, rat
Description: In vivo animal toxicity studies were performed according to ICH guidance for industry M3(R2) and conformed to the Institutional Animal Care and Use Guidelines for the contract laboratory and sponsor. […] Recovery was assessed after a 12‐week treatment‐free period. Beagle dogs from Marshall BKU UK, 11 months of age, were given 0 (vehicle), 5, 15, or 30 mg/kg/day for 39 weeks. Vehicle consisted of 0.5% (w/v) methylcellulose (1,500 cPS) in 0.1% (v/v) polysorbate 80 (Tween®‐80) in reverse osmosis water. At necropsy, tissues were immersion fixed in 10% neutral‐buffered formalin or modified Davidson's solution and then processed by routine methods to paraffin block and hematoxylin–eosin (H&E)‐stained histologic slides.

[2] = tested on: Aβ40 in rat brain tissue; test: Aβ40 in rat brain and CSF after single oral dose; format: in vivo
Description: Therefore, we measured Aβ40 in rat brain tissue 4 h after oral administration over a range of doses. […] In addition, the effect‐over‐time curves for brain and CSF almost completely superimposed, showing that Aβ pharmacodynamics in CSF mirrors very well that in brain tissue.
Experiments were carried out in accordance with the guidelines of the Swiss Federal and Cantonal veterinary offices for care and use of laboratory animals or the Canadian Council on Animal Care (Ottawa, Canada), and the ARRIVE guidelines. Studies described in this report were approved by the Swiss Cantonal Veterinary Authority of Basel City, Switzerland, and performed according to animal license numbers BS‐2063, BS‐2077, and BS‐1094. Methods employed in PK/PD studies in rats and dogs are described (Neumann et al, 2015).
Electrochemiluminescence immunoassays (Mesoscale Diagnostics, Rockville, MD, USA) were used to determine Aβ38, Aβ40, Aβ42, sAPPα, and sAPPβ. For studies in normal mice and rats, the endogenous Aβ40 was extracted from the brain homogenate with 1% Triton X‐100, and the 4G8‐based assay kit was used for quantification according to the manufacturer's instructions. CSF was collected from the cisterna magna and also analyzed using the 4G8 kit. For studies in dogs, CSF was collected via a ventricular port, and the 6E10‐based Mesoscale Diagnostics kit for Aβ was used. For studies in APP23 mice, Aβ40 and Aβ42 were determined after extraction with 70% formic acid and subsequent neutralization.

[3] = tested on: CSF Aβ; test: Human CSF Aβ after 2-week once-daily dosing; format: in vivo; conditions: 2 weeks, 24 h after last dose, mean ± SEM
Description: (A) Changes in Aβ40 relative to baseline values. (B) Changes in sAPPβ relative to baseline values.
CSF was sampled by single lumbar punctures at baseline and 24 h after the last dose, and the change in Aβ concentrations from baseline to end of treatment was determined.
Human CSF was collected from an indwelling spinal catheter inserted into the lower spinal canal (in the single ascending dose (SAD) PD first in human (FIH) study) or by a lumbar puncture (in the multiple ascending dose (MAD) PD Phase I study and Phase IIa study), and by trained personnel at the site and as per their standard operating procedure (SOP). CSF Aβ38, Aβ40, Aβ42, sAPPα, and sAPPβ were quantified in human CSF with 0.2% (v/v) Tween®‐20 using validated sandwich‐based multiplexed electrochemiluminescence methods (MesoScale Discovery, […], MD, USA).

[4] = tested on: healthy participants ≥ 60 years; test: Adverse events after once-daily dosing over two weeks (Appendix Table S7); format: in vivo, human

SMILES: C[C@@]1(c2nc(NC(=O)c3ncc(C(F)(F)F)cc3Cl)ccc2F)CO[C@@](C)(C(F)(F)F)C(N)=N1 [CNP520]
- dose with delayed ovulation and slightly reduced fecundity and fertility indices ([1]; female rats): ≥ 30 mg/kg/day
- safety margin: exposure at NOAEL vs exposure at 85 mg in Phase IIa ([1]; female rats): ≥ 7 fold
- fecundity and fertility indices ([1]; female rats at ≥ 30 mg/kg/day, 90% in control animals): 74%
- safety margin: exposure at NOAEL vs exposure at 85 mg in Phase IIa ([1]; male rats): ≥ 5 fold
- dose with adverse (CNS/clinical) effects ([1]; male rats, long-term toxicology): ≥ 500 mg/kg/day
- Aβ40 reduction in rat brain and CSF ([2]; 24 h after single oral 30 μmol/kg (15.4 mg/kg) dose): ~ 50%
- ED50 ([2]; Rattus norvegicus, read-out: ED50, oral dose required for 50% lowering of rat brain Aβ40, 4 h after oral administration): 2.4 ± 0.31 mg/kg
- reduction of Aβ40 in rat brain tissue compared to untreated controls ([2]; highest dose, 4 h after oral administration, mean ± SD): 89.3 ± 4.5%
- Aβ reduction in CSF from baseline to end of treatment ([3]; 10 mg daily dose): 59.8 ± 9.88%
- Aβ reduction in CSF from baseline to end of treatment ([3]; 300 mg daily dose): 93.9 ± 2.09%
- AE incidence: Ear and labyrinth disorders ([4]; 10 mg once daily, N = 9): 0 (0.0) n (%)
- AE incidence: Eye disorders ([4]; 10 mg once daily, N = 9): 1 (11.1) n (%)
- AE incidence: Gastrointestinal disorders ([4]; 10 mg once daily, N = 9): 3 (33.3) n (%)
- AE incidence: General disorders and administration site conditions ([4]; 10 mg once daily, N = 9): 0 (0.0) n (%)
- AE incidence: Infections and infestations ([4]; 10 mg once daily, N = 9): 2 (22.2) n (%)
- AE incidence: Metabolism and nutrition disorders ([4]; 10 mg once daily, N = 9): 0 (0.0) n (%)
- AE incidence: Nervous system disorders ([4]; 10 mg once daily, N = 9): 4 (44.4) n (%)
- AE incidence: Psychiatric disorders ([4]; 10 mg once daily, N = 9): 1 (11.1) n (%)
- AE incidence: Renal and urinary disorders ([4]; 10 mg once daily, N = 9): 0 (0.0) n (%)
- AE incidence: Skin and subcutaneous tissue disorders ([4]; 10 mg once daily, N = 9): 0 (0.0) n (%)
- AE incidence: Ear and labyrinth disorders ([4]; 30 mg once daily, N = 9): 1 (11.1) n (%)
- AE incidence: Eye disorders ([4]; 30 mg once daily, N = 9): 0 (0.0) n (%)
- AE incidence: Gastrointestinal disorders ([4]; 30 mg once daily, N = 9): 2 (22.2) n (%)
- AE incidence: General disorders and administration site conditions ([4]; 30 mg once daily, N = 9): 1 (11.1) n (%)
- AE incidence: Infections and infestations ([4]; 30 mg once daily, N = 9): 2 (22.2) n (%)
- AE incidence: Metabolism and nutrition disorders ([4]; 30 mg once daily, N = 9): 0 (0.0) n (%)
- AE incidence: Nervous system disorders ([4]; 30 mg once daily, N = 9): 0 (0.0) n (%)
- AE incidence: Psychiatric disorders ([4]; 30 mg once daily, N = 9): 0 (0.0) n (%)
- AE incidence: Respiratory, thoracic and mediastinal disorders ([4]; 30 mg once daily, N = 9): 0 (0.0) n (%)
- AE incidence: Skin and subcutaneous tissue disorders ([4]; 30 mg once daily, N = 9): 0 (0.0) n (%)
- Participants with any AE(s) ([4]; 30 mg once daily, N = 9): 5 (55.6) n (%)
- AE incidence: Ear and labyrinth disorders ([4]; 90 mg once daily, N = 9): 0 (0.0) n (%)
- AE incidence: Eye disorders ([4]; 90 mg once daily, N = 9): 1 (11.1) n (%)
- AE incidence: Gastrointestinal disorders ([4]; 90 mg once daily, N = 9): 3 (33.3) n (%)
- AE incidence: General disorders and administration site conditions ([4]; 90 mg once daily, N = 9): 0 (0.0) n (%)
- AE incidence: Infections and infestations ([4]; 90 mg once daily, N = 9): 2 (22.2) n (%)
- AE incidence: Metabolism and nutrition disorders ([4]; 90 mg once daily, N = 9): 0 (0.0) n (%)
- AE incidence: Nervous system disorders ([4]; 90 mg once daily, N = 9): 1 (11.1) n (%)
- AE incidence: Psychiatric disorders ([4]; 90 mg once daily, N = 9): 0 (0.0) n (%)
- AE incidence: Renal and urinary disorders ([4]; 90 mg once daily, N = 9): 1 (11.1) n (%)
- AE incidence: Respiratory, thoracic and mediastinal disorders ([4]; 90 mg once daily, N = 9): 1 (11.1) n (%)
- AE incidence: Skin and subcutaneous tissue disorders ([4]; 90 mg once daily, N = 9): 0 (0.0) n (%)
- Participants with any AE(s) ([4]; 90 mg once daily, N = 9): 6 (66.7) n (%)
- AE incidence: Eye disorders ([4]; 300 mg once daily, N = 8): 0 (0.0) n (%)
- AE incidence: Gastrointestinal disorders ([4]; 300 mg once daily, N = 8): 2 (25.0) n (%)
- AE incidence: General disorders and administration site conditions ([4]; 300 mg once daily, N = 8): 1 (12.5) n (%)
- AE incidence: Infections and infestations ([4]; 300 mg once daily, N = 8): 0 (0.0) n (%)
- AE incidence: Metabolism and nutrition disorders ([4]; 300 mg once daily, N = 8): 2 (25.0) n (%)
- AE incidence: Nervous system disorders ([4]; 300 mg once daily, N = 8): 3 (37.5) n (%)
- AE incidence: Psychiatric disorders ([4]; 300 mg once daily, N = 8): 0 (0.0) n (%)
- AE incidence: Renal and urinary disorders ([4]; 300 mg once daily, N = 8): 1 (12.5) n (%)
- AE incidence: Respiratory, thoracic and mediastinal disorders ([4]; 300 mg once daily, N = 8): 0 (0.0) n (%)
- AE incidence: Skin and subcutaneous tissue disorders ([4]; 300 mg once daily, N = 8): 2 (25.0) n (%)
- Participants with any AE(s) ([4]; 300 mg once daily, N = 8): 6 (75.0) n (%)
